From the NIST ThermoML archive (doi:10.1021/je0604481)

Test: mn = molality of the nth substance listed, in mol/kg
Conditions: Liquid; for mass density: Constant-volume piezometry; for viscosity: Capillary tube (Ostwald / Ubbelohde) method

O=S(=O)([O-])[O-].[Mg+2] [magnesium sulfate] + O
Conditions | mass density [kg/m3] | viscosity [mPa·s]
288.57 K, 101 kPa, m1 = 2.224 | 1235.34 | –
288.57 K, 101 kPa, m1 = 2.535 | 1263.36 | –
291.15 K, 101 kPa, m1 = 0.084 | 1008.8 | –
297.7 K, 101 kPa, m1 = 2.224 | 1231.87 | –
297.7 K, 101 kPa, m1 = 2.535 | 1259.83 | –
298.15 K, 100 kPa, m1 = 0.085 | – | 0.9407
298.15 K, 100 kPa, m1 = 0.255 | – | 1.055
298.15 K, 100 kPa, m1 = 0.437 | – | 1.184
298.15 K, 100 kPa, m1 = 0.722 | – | 1.442
298.15 K, 100 kPa, m1 = 0.923 | – | 1.651
298.15 K, 100 kPa, m1 = 1.824 | – | 3.137
298.15 K, 100 kPa, m1 = 2.291 | – | 4.414
298.15 K, 100 kPa, m1 = 2.623 | – | 5.789
298.15 K, 10000 kPa, m1 = 0.085 | – | 0.94
298.15 K, 10000 kPa, m1 = 0.255 | – | 1.054
298.15 K, 10000 kPa, m1 = 0.437 | – | 1.184
298.15 K, 10000 kPa, m1 = 0.722 | – | 1.443
298.15 K, 10000 kPa, m1 = 0.923 | – | 1.653
298.15 K, 10000 kPa, m1 = 1.824 | – | 3.138
298.15 K, 10000 kPa, m1 = 2.291 | – | 4.415
298.15 K, 10000 kPa, m1 = 2.623 | – | 5.79
298.15 K, 30000 kPa, m1 = 0.085 | – | 0.9415
298.15 K, 30000 kPa, m1 = 0.255 | – | 1.056
298.15 K, 30000 kPa, m1 = 0.437 | – | 1.185
298.15 K, 30000 kPa, m1 = 0.722 | – | 1.445
298.15 K, 30000 kPa, m1 = 0.923 | – | 1.655
298.15 K, 30000 kPa, m1 = 1.824 | – | 3.14
298.15 K, 30000 kPa, m1 = 2.291 | – | 4.417
298.15 K, 30000 kPa, m1 = 2.623 | – | 5.792
299.67 K, 2040 kPa, m1 = 2.224 | 1231.7 | –
299.67 K, 7179 kPa, m1 = 2.224 | 1233.3 | –
299.67 K, 16830 kPa, m1 = 2.224 | 1236.3 | –
299.67 K, 22550 kPa, m1 = 2.224 | 1238.2 | –
299.67 K, 29600 kPa, m1 = 2.224 | 1240.3 | –
303.03 K, 101 kPa, m1 = 0.469 | 1050.08 | –
303.15 K, 101 kPa, m1 = 0.841 | 1090.98 | –
308.15 K, 100 kPa, m1 = 0.085 | – | 0.761
308.15 K, 100 kPa, m1 = 0.255 | – | 0.8459
308.15 K, 100 kPa, m1 = 0.437 | – | 0.9437
308.15 K, 100 kPa, m1 = 0.722 | – | 1.151
308.15 K, 100 kPa, m1 = 0.923 | – | 1.305
308.15 K, 100 kPa, m1 = 1.824 | – | 2.415
308.15 K, 100 kPa, m1 = 2.291 | – | 3.374
308.15 K, 100 kPa, m1 = 2.623 | – | 4.352
308.15 K, 10000 kPa, m1 = 0.085 | – | 0.7618
308.15 K, 10000 kPa, m1 = 0.255 | – | 0.8466
308.15 K, 10000 kPa, m1 = 0.437 | – | 0.946
308.15 K, 10000 kPa, m1 = 0.722 | – | 1.153
308.15 K, 10000 kPa, m1 = 0.923 | – | 1.305
308.15 K, 10000 kPa, m1 = 1.824 | – | 2.418
308.15 K, 10000 kPa, m1 = 2.291 | – | 3.376
308.15 K, 10000 kPa, m1 = 2.623 | – | 4.355
308.15 K, 30000 kPa, m1 = 0.085 | – | 0.7645
308.15 K, 30000 kPa, m1 = 0.255 | – | 0.8495
308.15 K, 30000 kPa, m1 = 0.437 | – | 0.9486
308.15 K, 30000 kPa, m1 = 0.722 | – | 1.156
308.15 K, 30000 kPa, m1 = 0.923 | – | 1.309
308.15 K, 30000 kPa, m1 = 1.824 | – | 2.422
308.15 K, 30000 kPa, m1 = 2.291 | – | 3.348
308.15 K, 30000 kPa, m1 = 2.623 | – | 4.364
308.6 K, 101 kPa, m1 = 0.261 | 1024.48 | –
310.15 K, 101 kPa, m1 = 2.224 | 1226.56 | –
310.15 K, 101 kPa, m1 = 2.535 | 1254.38 | –
314.98 K, 2157 kPa, m1 = 2.535 | 1252.7 | –
314.98 K, 8159 kPa, m1 = 2.535 | 1254.5 | –
314.98 K, 15690 kPa, m1 = 2.535 | 1256.7 | –
314.98 K, 25910 kPa, m1 = 2.535 | 1259.9 | –
314.98 K, 29800 kPa, m1 = 2.535 | 1261 | –
323.05 K, 2197 kPa, m1 = 2.224 | 1221.5 | –
323.05 K, 10120 kPa, m1 = 2.224 | 1224 | –
323.05 K, 19850 kPa, m1 = 2.224 | 1227 | –
323.05 K, 26300 kPa, m1 = 2.224 | 1229.1 | –
323.05 K, 30500 kPa, m1 = 2.224 | 1230.3 | –
323.15 K, 100 kPa, m1 = 0.085 | – | 0.5785
323.15 K, 100 kPa, m1 = 0.255 | – | 0.6403
323.15 K, 100 kPa, m1 = 0.437 | – | 0.7163
323.15 K, 100 kPa, m1 = 0.722 | – | 0.8612
323.15 K, 100 kPa, m1 = 0.923 | – | 0.9738
323.15 K, 100 kPa, m1 = 1.824 | – | 1.744
323.15 K, 100 kPa, m1 = 2.291 | – | 2.373
323.15 K, 100 kPa, m1 = 2.623 | – | 2.997
323.15 K, 101 kPa, m1 = 0.084 | 998.05 | –
323.15 K, 101 kPa, m1 = 0.261 | 1018.3 | –
323.15 K, 101 kPa, m1 = 0.469 | 1041.45 | –
323.15 K, 101 kPa, m1 = 0.841 | 1082.67 | –
323.15 K, 10000 kPa, m1 = 0.085 | – | 0.5809
323.15 K, 10000 kPa, m1 = 0.255 | – | 0.6431
323.15 K, 10000 kPa, m1 = 0.437 | – | 0.7198
323.15 K, 10000 kPa, m1 = 0.722 | – | 0.8651
323.15 K, 10000 kPa, m1 = 0.923 | – | 0.9781
323.15 K, 10000 kPa, m1 = 1.824 | – | 1.751
323.15 K, 10000 kPa, m1 = 2.291 | – | 2.382
323.15 K, 10000 kPa, m1 = 2.623 | – | 3.009
323.15 K, 30000 kPa, m1 = 0.085 | – | 0.5856
323.15 K, 30000 kPa, m1 = 0.255 | – | 0.648
323.15 K, 30000 kPa, m1 = 0.437 | – | 0.7256
323.15 K, 30000 kPa, m1 = 0.722 | – | 0.8714
323.15 K, 30000 kPa, m1 = 0.923 | – | 0.9853
323.15 K, 30000 kPa, m1 = 1.824 | – | 1.764
323.15 K, 30000 kPa, m1 = 2.291 | – | 2.4
323.15 K, 30000 kPa, m1 = 2.623 | – | 3.031
324.35 K, 101 kPa, m1 = 2.224 | 1219.96 | –
324.35 K, 101 kPa, m1 = 2.535 | 1247.46 | –
340.25 K, 101 kPa, m1 = 2.224 | 1211.6 | –
340.25 K, 101 kPa, m1 = 2.535 | 1238.93 | –
348.13 K, 1549 kPa, m1 = 2.535 | 1235.1 | –
348.13 K, 9807 kPa, m1 = 2.535 | 1237.7 | –
348.13 K, 14220 kPa, m1 = 2.535 | 1238.9 | –
348.13 K, 23810 kPa, m1 = 2.535 | 1241.9 | –
348.13 K, 30020 kPa, m1 = 2.535 | 1243.8 | –
348.15 K, 100 kPa, m1 = 0.437 | – | 0.491
